From patent publication US5849735A, “Tricyclic benzazepine vasopressin antagonists” (American Cyanamid Company, priority 1995, dated 1998)

Columns and labels:
[1] = target: T1, vasopressin V1 receptor (human platelet membranes) (Homo sapiens, UniProt P37288); assay: Binding to Vasopressin V1 receptor subtype in Human Platelet Membranes
T1 construct: tissue Hudson Valley Blood Services; host or cells: human platelets (frozen platelet rich plasma)
Experimental: Radioligand Binding Experiments with Human Platelet Membranes
(a) Platelet Membrane Preparation
Frozen platelet rich plasma (PRP), received from the Hudson Valley Blood Services, are thawed to room temperature. (Platelet Source: Hudson Valley Blood Services, Westchester Medical Center, Valhalla, N.Y.). The tubes containing the PRP are centrifuged at 16,000×g for 10 minutes at 4° C. and the supernatant fluid discarded. The platelets resuspended in an equal volume of 50.0 mM Tris.HCL, pH 7.5 containing 120 mM NaCl and 20.0 mM EDTA. The suspension is recentrifuged at 16,000×g for 10 minutes. This washing step is repeated one more time. The wash discarded and the lysed pellets homogenized in low ionic strength buffer of Tris. HCl, […], pH 7.5 containing 5.0 mM EDTA. The homogenate is centrifuged at 39,000×g for 10 minutes. The resulting pellet is resuspended in Tris.HCl buffer, 70.0 mM, pH 7.5 and recentrifuged at 39,000×g for 10 minutes. […]
In wells of a 96 well format microtiter plate, add 100 ml of 50.0 mM Tris. […] Non specific binding is measured in the presence of 1.0 mM of unlabeled ligand (Manning or Arg^8 Vasopressin). […] The radioactivity caught on the filter disks is determined by the addition of liquid scintillant and counting in a liquid scintillator.

[2] = target: T2, human V2 vasopressin receptor (Homo sapiens, UniProt P30518); assay: Binding to Membranes of Mouse Fibroblast Cell Line (LV-2) Transfected with the cDNA Expressing the Human V2 Vasopressin Receptor
T2 construct: expressed in transfected cells; host or cells: mouse fibroblast cell line LV-2
Experimental: Binding to Membranes of Mouse Fibroblast Cell Line (LV-2) Transfected with the cDNA Expressing the Human V2 Vasopressin Receptor
Flasks of 175 ml capacity, continuing attached cells grown to confluence, are cleared of culture medium by aspiration. The flasks containing the attached cells are rinsed with 2×5 ml of phosphate buffered saline (PBS) and the liquid aspirated off each time. […] The protein content is determined by the Lowry method and the receptor membranes are suspended in 50.0 mM Tris.HCl buffer containing 0.1 mM phenylmethylsulfonylfluoride (PMSF) and 0.2% bovine serum albumin (BSA) to give 2.5 mg receptor protein per ml of suspension.
For binding experiments, the following is added in ml volume to wells of a 96 well format of a microtiter plate: 100.0 ml of 100.0 mM Tris.HCl buffer containing 0.2% heat inactivated BSA, 10.0 mM MgCl2 and a mixture of protease inhibitors: leupeptin, 1.0 mg %; aprotinin, 1.0 mg %; 1,10-phenanthroline, 2.0 mg %; trypsin inhibitor, 10.0 mg % and 0.1 mM PMSF., 20.0 ml of [^3 H] […] Non specific binding is assessed in the presence of 1.0 mM of unlabeled ligand, added in 20 ml volume. […] The radioactivity trapped on the filter disk by the ligand-receptor complex is assessed by liquid scintillation counting in a Packard LS Counter, with an efficiency of 65% for tritium.

T2 sequence (P30518 whole entry): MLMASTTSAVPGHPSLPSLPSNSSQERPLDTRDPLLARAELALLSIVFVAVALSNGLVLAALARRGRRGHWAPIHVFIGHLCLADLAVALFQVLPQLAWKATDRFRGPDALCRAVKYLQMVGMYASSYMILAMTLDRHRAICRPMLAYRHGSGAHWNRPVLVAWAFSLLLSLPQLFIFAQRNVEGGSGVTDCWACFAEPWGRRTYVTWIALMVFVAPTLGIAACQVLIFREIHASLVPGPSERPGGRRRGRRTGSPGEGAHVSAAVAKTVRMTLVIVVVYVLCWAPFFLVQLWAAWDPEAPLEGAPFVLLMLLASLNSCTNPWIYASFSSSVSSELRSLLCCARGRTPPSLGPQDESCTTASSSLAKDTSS
T1 sequence (P37288 whole entry): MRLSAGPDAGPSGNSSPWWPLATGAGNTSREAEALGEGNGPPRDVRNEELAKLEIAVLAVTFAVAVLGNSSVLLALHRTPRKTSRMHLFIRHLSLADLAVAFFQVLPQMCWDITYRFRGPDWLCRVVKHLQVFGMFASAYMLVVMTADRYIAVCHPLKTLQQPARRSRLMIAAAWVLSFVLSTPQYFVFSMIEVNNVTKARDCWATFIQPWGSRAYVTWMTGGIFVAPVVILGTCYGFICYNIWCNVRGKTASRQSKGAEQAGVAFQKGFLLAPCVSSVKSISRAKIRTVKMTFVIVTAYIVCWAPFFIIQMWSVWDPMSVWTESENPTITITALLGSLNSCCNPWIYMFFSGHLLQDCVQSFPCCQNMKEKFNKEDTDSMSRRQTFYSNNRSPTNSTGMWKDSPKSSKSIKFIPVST

| V1 % ([1]; "(μM)" (concentration not given), 90 min) | inhibition at 10 µM ([2]; ** human V2, LV-2 membranes, 10 μM) | IC50 [1] | IC50 ([2]; ** human V2 receptor, LV-2 membranes) | SMILES |
| --- | --- | --- | --- | --- |
| 72% | 26% |  |  | CCCCOc1ccc(C(=O)N2Cc3ccccc3Cc3ccccc32)cc1 [Example 24] |
|  |  | 14 nM | 1800 nM | O=C(c1ccc(-c2ccccc2)cc1)N1Cc2sccc2Cc2ccccc21 [Example 27, 9-([1,1'-Biphenyl]-4-ylcarbonyl)-9,10-dihydro-4H-thieno[2,3-c][1]benzazepine] |
